Measurements taken from ChEMBL document CHEMBL3576837, “Targeted natural products discovery from marine cyanobacteria using combined phylogenetic and mass spectrometric evaluation” (2015).

Tests used:
Type in all cases: functional
HT-29 [1] = assay: Cytotoxicity against human HT-29 cells assessed as cell viability at 4 nM incubated for 48 hrs by MTT assay; conditions: HT-29, 48 h, read-out: Activity
HT-29 [2] = assay: Cytotoxicity against human HT-29 cells assessed as cell viability at 4 nM incubated for 48 hrs in presence of 0.32 nM dolastatin 10 by MTT assay
HT-29 [3] = assay: Cytotoxicity against human HT-29 cells assessed as cell viability at 0.32 nM incubated for 48 hrs by MTT assay; conditions: HT-29, 48 h, read-out: Activity
HT-29 [4] = assay: Cytotoxicity against human HT-29 cells assessed as cell viability at 0.32 nM incubated for 48 hrs in presence of 4 nM largazole by MTT assay

| SMILES | viability at 0.004 µM (HT-29 [1]) | Activity (HT-29 [2]) | viability at 0.00032 µM (HT-29 [3]) | Activity (HT-29 [4]) |
| --- | --- | --- | --- | --- |
| CCCCCCCC(=O)SCC/C=C/[C@@H]1CC(=O)NCc2nc(cs2)C2=N[C@@](C)(CS2)C(=O)N[C@@H](C(C)C)C(=O)O1 [LARGAZOLE] | 80% | 55% | – | – |
| CC[C@H](C)[C@@H]([C@@H](CC(=O)N1CCC[C@H]1[C@H](OC)[C@@H](C)C(=O)N[C@@H](Cc1ccccc1)c1nccs1)OC)N(C)C(=O)[C@@H](NC(=O)[C@H](C(C)C)N(C)C)C(C)C [DOLASTATIN-10] | – | – | 80% | 55% |
